{"source": "patent US20260077051A1", "about": "“COMPOUNDS FOR THE DEGRADATION OF EGFR KINASE” (BeOne Medicines I GmbH, priority 2023, published 2026)", "key": {"[1]": {"target": "T1, EGFR L858R (BaF3-L858R cells) (Homo sapiens, UniProt P00533, L858R)", "T1 construct": "host or cells: BaF3", "T1 sequence (P00533 25-1210 L858R)": "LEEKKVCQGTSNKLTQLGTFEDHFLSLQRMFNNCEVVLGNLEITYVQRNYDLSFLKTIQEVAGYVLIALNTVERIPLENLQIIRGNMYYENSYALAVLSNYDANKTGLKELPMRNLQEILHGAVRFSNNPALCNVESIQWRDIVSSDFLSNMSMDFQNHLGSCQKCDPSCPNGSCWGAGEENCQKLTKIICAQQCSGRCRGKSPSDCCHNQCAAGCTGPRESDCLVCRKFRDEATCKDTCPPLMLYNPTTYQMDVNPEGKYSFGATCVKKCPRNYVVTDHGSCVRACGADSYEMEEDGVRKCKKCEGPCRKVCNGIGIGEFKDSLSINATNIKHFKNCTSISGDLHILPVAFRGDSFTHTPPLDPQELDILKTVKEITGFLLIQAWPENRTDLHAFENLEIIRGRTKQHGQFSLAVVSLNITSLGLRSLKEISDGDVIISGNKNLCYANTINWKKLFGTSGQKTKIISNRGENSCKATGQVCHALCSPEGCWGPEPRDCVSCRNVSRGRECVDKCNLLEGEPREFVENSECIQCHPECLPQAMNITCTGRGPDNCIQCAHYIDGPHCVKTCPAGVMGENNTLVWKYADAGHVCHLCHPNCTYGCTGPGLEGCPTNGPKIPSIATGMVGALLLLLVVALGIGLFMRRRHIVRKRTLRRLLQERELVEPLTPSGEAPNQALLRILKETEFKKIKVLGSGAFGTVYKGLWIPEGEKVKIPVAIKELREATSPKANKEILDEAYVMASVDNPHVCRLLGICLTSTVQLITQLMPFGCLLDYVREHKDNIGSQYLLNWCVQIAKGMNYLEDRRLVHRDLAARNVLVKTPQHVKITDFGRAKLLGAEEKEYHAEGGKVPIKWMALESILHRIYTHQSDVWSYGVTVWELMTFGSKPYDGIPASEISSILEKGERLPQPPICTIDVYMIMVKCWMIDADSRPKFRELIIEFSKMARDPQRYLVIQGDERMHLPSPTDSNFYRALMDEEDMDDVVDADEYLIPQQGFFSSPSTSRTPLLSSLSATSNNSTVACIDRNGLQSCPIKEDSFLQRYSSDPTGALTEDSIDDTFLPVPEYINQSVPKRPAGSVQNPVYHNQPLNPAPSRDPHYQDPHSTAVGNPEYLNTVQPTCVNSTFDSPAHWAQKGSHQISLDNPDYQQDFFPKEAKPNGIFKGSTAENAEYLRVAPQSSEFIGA", "assay": "EGFR degradation in BaF3-L858R cells (HTRF assay)", "type": "cell-based", "conditions": "16 h treatment; for DC50: IC50(DC50) of EGFR degradation; for Dmax: maximum percentage of inhibition (degradation)", "outline": "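BaF3-L858R cells were exposed for 16 h at 37° C to 8 doses, 5-fold dilutions starting at 10 uM final, in 0.1% DMSO medium. Lysates were incubated overnight with HTRF antibodies and read at 665/620 nm. Degradation was taken relative to DMSO control, and DC50 and Dmax came from a four-parameter fit.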"}, "[2]": {"target": "T2, EGFR-L858R/C797S (H1975-clone #8 cells) (Homo sapiens, UniProt P00533, C797S/L858R)", "T2 construct": "expressed in transfected cells; host or cells: H1975 (lentiviral transduction, endogenous EGFR knocked out, single clone #8)", "T2 sequence (P00533 25-1210 C797S/L858R)": "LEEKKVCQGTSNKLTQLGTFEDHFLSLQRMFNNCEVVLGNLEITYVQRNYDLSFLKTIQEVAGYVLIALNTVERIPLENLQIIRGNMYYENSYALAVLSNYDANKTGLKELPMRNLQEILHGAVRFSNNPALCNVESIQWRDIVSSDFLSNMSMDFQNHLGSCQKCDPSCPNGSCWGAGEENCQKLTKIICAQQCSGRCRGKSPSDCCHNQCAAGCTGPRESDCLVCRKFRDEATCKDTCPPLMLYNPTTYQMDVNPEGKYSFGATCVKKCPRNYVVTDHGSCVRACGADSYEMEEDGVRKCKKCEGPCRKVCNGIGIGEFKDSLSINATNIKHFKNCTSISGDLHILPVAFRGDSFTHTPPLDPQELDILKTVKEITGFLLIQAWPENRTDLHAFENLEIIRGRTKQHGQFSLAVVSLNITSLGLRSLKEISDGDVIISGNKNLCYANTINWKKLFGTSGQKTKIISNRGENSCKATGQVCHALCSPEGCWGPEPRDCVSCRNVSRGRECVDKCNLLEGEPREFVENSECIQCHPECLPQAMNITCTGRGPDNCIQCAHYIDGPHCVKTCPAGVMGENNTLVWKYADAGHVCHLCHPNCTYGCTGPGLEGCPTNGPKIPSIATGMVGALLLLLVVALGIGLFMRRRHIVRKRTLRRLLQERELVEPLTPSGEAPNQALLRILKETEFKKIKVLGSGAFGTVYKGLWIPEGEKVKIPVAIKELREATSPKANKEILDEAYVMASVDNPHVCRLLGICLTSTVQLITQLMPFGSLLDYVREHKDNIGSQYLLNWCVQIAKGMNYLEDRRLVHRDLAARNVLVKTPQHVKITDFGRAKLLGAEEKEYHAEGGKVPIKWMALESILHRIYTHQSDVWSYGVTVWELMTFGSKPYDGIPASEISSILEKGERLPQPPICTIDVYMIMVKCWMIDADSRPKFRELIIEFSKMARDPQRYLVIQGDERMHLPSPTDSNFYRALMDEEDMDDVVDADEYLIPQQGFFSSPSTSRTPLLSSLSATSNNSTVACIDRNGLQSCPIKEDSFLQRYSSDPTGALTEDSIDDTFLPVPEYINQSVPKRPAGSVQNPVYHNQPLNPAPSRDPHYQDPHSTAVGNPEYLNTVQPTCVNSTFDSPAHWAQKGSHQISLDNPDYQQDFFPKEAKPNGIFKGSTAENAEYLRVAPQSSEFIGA", "assay": "EGFR degradation in H1975-clone#8 (L858R/C797S) cells (HTRF assay)", "type": "cell-based", "conditions": "16 h treatment; for DC50: IC50(DC50) of EGFR degradation; for Dmax: maximum percentage of inhibition (degradation)", "outline": "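H1975 cells engineered to carry only homozygous exogenous EGFR L858R/C797S (clone #8) treated 16 h at 37 °C with compound, 8 doses from 10 uM in 5-fold steps, 0.1% DMSO. Remaining EGFR in lysates measured by HTRF; degradation percentage relative to DMSO control, DC50 and Dmax from 4-parameter fit.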"}}}
{"smiles": "Cc1cc2cc(n1)-c1cnn(C)c1OCC[C@H]1C[C@@H]1CN1/C(=N/C2=O)Nc2ccc(N3CCN(C4CN(C5CCN(c6ccc(C7CCC(=O)NC7=O)nc6C)CC5)C4)C[C@H]3C)cc21", "note": "(stereo partly drawn) [Example 37, 3-(5-(4-(3-((R)-4-((7^1S,7^2R,E)-1^1,2^6-dimethyl-3-oxo-5^2,5^3-dihydro-1^1H,5^1H-10-oxa-4-aza-5 (2,1)-benzo[d]imidazola-2 (2,4)-pyridina-1 (4,5)-pyrazola-7 (1,2)-cyclopropanacyclodecaphane-5^6-yl)-3-methylpiperazin-1-yl)azetidin-1-yl)piperidin-1-yl)-6-methylpyridin-2-yl)piperidine-2,6-dione]", "values": [{"measurement": "DC50", "setting": "[1]", "value": 7.92, "unit": "nM"}, {"measurement": "Dmax", "setting": "[1]", "value": 64.5, "unit": "%"}, {"measurement": "DC50", "setting": "[2]", "value": 8.34, "unit": "nM"}, {"measurement": "Dmax", "setting": "[2]", "value": 55.9, "unit": "%"}]}
{"smiles": "Cc1cc2cc(n1)-c1cnn(C)c1OCC[C@]1(C)C[C@H]1CN1/C(=N/C2=O)Nc2ccc(N3CCN([C@@H]4CCN(c5cc(F)c(C6CCC(=O)NC6=O)nc5C)C[C@@H]4F)CC3)cc21", "note": "(stereo partly drawn) [Example 43, 3-(3-fluoro-5-((3S,4R)-3-fluoro-4-(4-((7^1R,7^2S,E)-1^1,2^6,7^2-trimethyl-3-oxo-5^2,5^3-dihydro-1^1H,5^1H-10-oxa-4-aza-5 (2,1)-benzo[d]imidazola-2 (2,4)-pyridina-1 (4,5)-pyrazola-7 (1,2)-cyclopropanacyclodecaphane-5^6-yl)piperazin-1-yl)piperidin-1-yl)-6-methylpyridin-2-yl)piperidine-2,6-dione]", "values": [{"measurement": "DC50", "setting": "[1]", "value": 1.74, "unit": "nM"}, {"measurement": "Dmax", "setting": "[1]", "value": 86.2, "unit": "%"}, {"measurement": "DC50", "setting": "[2]", "value": 2.81, "unit": "nM"}, {"measurement": "Dmax", "setting": "[2]", "value": 88.8, "unit": "%"}]}
{"smiles": "Cc1cc2cc(n1)-c1cnn(C)c1OCC[C@]1(C)C[C@H]1CN1/C(=N/C2=O)Nc2ccc(N3CCN([C@@H]4CCN(c5ccc(C6CCC(=O)NC6=O)nc5C)C[C@@H]4F)CC3)cc21", "note": "(stereo partly drawn) [Example 49, 3-(5-((3S,4R)-3-fluoro-4-(4-((7^1R,7^2S,E)-1^1,2^6,7^2-trimethyl-3-oxo-5^2,5^3-dihydro-1^1H,5^1H-10-oxa-4-aza-5 (2,1)-benzo[d]imidazola-2 (2,4)-pyridina-1 (4,5)-pyrazola-7 (1,2)-cyclopropanacyclodecaphane-5^6-yl)piperazin-1-yl)piperidin-1-yl)-6-methylpyridin-2-yl)piperidine-2,6-dione]", "values": [{"measurement": "DC50", "setting": "[1]", "value": 0.418, "unit": "nM"}, {"measurement": "Dmax", "setting": "[1]", "value": 86.7, "unit": "%"}, {"measurement": "DC50", "setting": "[2]", "value": 0.942, "unit": "nM"}, {"measurement": "Dmax", "setting": "[2]", "value": 86.9, "unit": "%"}]}
{"smiles": "Cc1cc2cc(n1)-c1cnn(C)c1OCC[C@]1(C)C[C@H]1CN1/C(=N/C2=O)Nc2ccc(N3CCN(C4CCN(c5cc(F)c(C6CCC(=O)NC6=O)nc5C)CC4)CC3)cc21", "note": "(some centres unmarked) [Example 54, 3-(3-fluoro-6-methyl-5-(4-(4-((7^1R,7^2S,E)-1^1,2^6,7^2-trimethyl-3-oxo-5^2,5^3-dihydro-1^1H,5^1H-10-oxa-4-aza-5 (2,1)-benzo[d]imidazola-2 (2,4)-pyridina-1 (4,5)-pyrazola-7 (1,2)-cyclopropanacyclodecaphane-5^6-yl)piperazin-1-yl)piperidin-1-yl)pyridin-2-yl)piperidine-2,6-dione]", "values": [{"measurement": "DC50", "setting": "[1]", "value": 3.35, "unit": "nM"}, {"measurement": "Dmax", "setting": "[1]", "value": 91.9, "unit": "%"}, {"measurement": "DC50", "setting": "[2]", "value": 2.11, "unit": "nM"}, {"measurement": "Dmax", "setting": "[2]", "value": 77.7, "unit": "%"}]}
{"smiles": "Cc1cc2cc(n1)-c1cnn(C)c1OCC[C@]1(C)C[C@H]1CN1/C(=N/C2=O)Nc2ccc(N3CCN([C@@H]4CCN(c5cccc6c5C(C)(C)C(=O)N6C5CCC(=O)NC5=O)C[C@@H]4F)CC3)cc21", "note": "(stereo partly drawn) [Example 57, 3-(4-((3S,4R)-3-fluoro-4-(4-((7^1R,7^2S,E)-1^1,2^6,7^2-trimethyl-3-oxo-5^2,5^3-dihydro-1^1H,5^1H-10-oxa-4-aza-5 (2,1)-benzo[d]imidazola-2 (2,4)-pyridina-1 (4,5)-pyrazola-7 (1,2)-cyclopropanacyclodecaphane-5^6-yl)piperazin-1-yl)piperidin-1-yl)-3,3-dimethyl-2-oxoindolin-1-yl)piperidine-2,6-dione]", "values": [{"measurement": "DC50", "setting": "[1]", "value": 3.2, "unit": "nM"}, {"measurement": "Dmax", "setting": "[1]", "value": 91.3, "unit": "%"}, {"measurement": "DC50", "setting": "[2]", "value": 4.21, "unit": "nM"}, {"measurement": "Dmax", "setting": "[2]", "value": 61.7, "unit": "%"}]}
{"smiles": "Cc1cc2cc(n1)-c1cnn(C)c1OCC[C@]1(C)C[C@H]1CN1/C(=N/C2=O)Nc2ccc(N3CCN([C@@H]4CCN(c5cnc(C6CCC(=O)NC6=O)cc5C)C[C@@H]4F)CC3)cc21", "note": "(stereo partly drawn) [Example 59, 3-(5-((3S,4R)-3-fluoro-4-(4-((7^1R,7^2S,E)-1^1,2^6,7^2-trimethyl-3-oxo-5^2,5^3-dihydro-1^1H,5^1H-10-oxa-4-aza-5 (2,1)-benzo[d]imidazola-2 (2,4)-pyridina-1 (4,5)-pyrazola-7 (1,2)-cyclopropanacyclodecaphane-5^6-yl)piperazin-1-yl)piperidin-1-yl)-4-methylpyridin-2-yl)piperidine-2,6-dione]", "values": [{"measurement": "DC50", "setting": "[1]", "value": 3.54, "unit": "nM"}, {"measurement": "Dmax", "setting": "[1]", "value": 95.5, "unit": "%"}, {"measurement": "DC50", "setting": "[2]", "value": 0.635, "unit": "nM"}, {"measurement": "Dmax", "setting": "[2]", "value": 72.7, "unit": "%"}]}
{"smiles": "Cc1cc2cc(n1)-c1cnn(C)c1OCC[C@]1(C)C[C@H]1CN1/C(=N/C2=O)Nc2ccc(N3CCN([C@H]4CCN(c5cc(F)c(C6CCC(=O)NC6=O)nc5C)C[C@H]4F)CC3)cc21", "note": "(stereo partly drawn) [Example 61, 3-(3-fluoro-5-((3R,4S)-3-fluoro-4-(4-((7^1R,7^2S,E)-1^1,2^6,7^2-trimethyl-3-oxo-5^2,5^3-dihydro-1^1H,5^1H-10-oxa-4-aza-5 (2,1)-benzo[d]imidazola-2 (2,4)-pyridina-1 (4,5)-pyrazola-7 (1,2)-cyclopropanacyclodecaphane-56-yl)piperazin-1-yl)piperidin-1-yl)-6-methylpyridin-2-yl)piperidine-2,6-dione]", "values": [{"measurement": "DC50", "setting": "[1]", "value": 0.99, "unit": "nM"}, {"measurement": "Dmax", "setting": "[1]", "value": 91.8, "unit": "%"}, {"measurement": "DC50", "setting": "[2]", "value": 1.29, "unit": "nM"}, {"measurement": "Dmax", "setting": "[2]", "value": 80.8, "unit": "%"}]}
{"smiles": "Cc1cc2cc(n1)-c1cnn(C)c1OCC[C@]1(C)C[C@H]1CN1/C(=N/C2=O)Nc2ccc(N3CCN([C@H]4CCN(c5ccc(C6CCC(=O)NC6=O)nc5C)C[C@H]4F)CC3)cc21", "note": "(stereo partly drawn) [Example 62, 3-(5-((3R,4S)-3-fluoro-4-(4-((7^1R,7^2S,E)-1^1,2^6,7^2-trimethyl-3-oxo-5^2,5^3-dihydro-1^1H,5^1H-10-oxa-4-aza-5 (2,1)-benzo[d]imidazola-2 (2,4)-pyridina-1 (4,5)-pyrazola-7 (1,2)-cyclopropanacyclodecaphane-5^6-yl)piperazin-1-yl)piperidin-1-yl)-6-methylpyridin-2-yl)piperidine-2,6-dione]", "values": [{"measurement": "DC50", "setting": "[1]", "value": 0.69, "unit": "nM"}, {"measurement": "Dmax", "setting": "[1]", "value": 93.8, "unit": "%"}, {"measurement": "DC50", "setting": "[2]", "value": 0.612, "unit": "nM"}, {"measurement": "Dmax", "setting": "[2]", "value": 76.8, "unit": "%"}]}
